Results reported in the NIST ThermoML archive (doi:10.1016/j.tca.2018.01.023).
Where “and” joins values, the source holds several entries; their conditions need not be identical. Identical values can stand only once. Numbers after ± are expanded uncertainties.

Test: molar heat capacity at constant pressure
Conditions: 101.33 kPa, Crystal, Small sample (50 mg) DSC

[Ca+2].[O]=[Mo](=[O])([O-])[O-] [calcium molybdate(VI)]
Conditions | molar heat capacity at constant pressure
335 K | 120.2 ± 5.1 J/K/mol
335.3 K | 120.2 ± 5.1 J/K/mol
335.4 K | 120.3 ± 5.1 J/K/mol
336.3 K | 120.3 ± 5.1 J/K/mol
336.4 K | 120.4 ± 5.1 J/K/mol
337.3 K | 120.5 ± 5.1 J/K/mol
337.4 K | 120.6 ± 5.1 J/K/mol
338.3 K | 120.6 ± 5.1 J/K/mol
338.4 K | 120.7 ± 5.1 J/K/mol
339.3 K | 120.7 ± 5.1 J/K/mol
339.4 K | 120.9 ± 5.1 J/K/mol
340 K | 120.9 ± 5.1 J/K/mol
340.3 K | 120.8 ± 5.1 J/K/mol
340.4 K | 121 ± 5.1 J/K/mol
341.3 K | 121 ± 5.1 J/K/mol
341.4 K | 121.1 ± 5.1 J/K/mol
342.3 K | 121.2 ± 5.1 J/K/mol
342.4 K | 121.2 ± 5.1 J/K/mol
343.3 K | 121.4 ± 5.2 J/K/mol
343.4 K | 121.4 ± 5.2 J/K/mol
344.3 K | 121.5 ± 5.2 J/K/mol
344.4 K | 121.5 ± 5.2 J/K/mol
345 K | 121.5 ± 5.2 J/K/mol
345.3 K | 121.7 ± 5.2 J/K/mol
345.4 K | 121.6 ± 5.2 J/K/mol
346.3 K | 121.8 ± 5.2 J/K/mol
346.4 K | 121.8 ± 5.2 J/K/mol
347.3 K | 121.9 ± 5.2 J/K/mol
347.4 K | 122 ± 5.2 J/K/mol
348.3 K | 122 ± 5.2 J/K/mol
348.4 K | 122.3 ± 5.2 J/K/mol
349.3 K | 122.1 ± 5.2 J/K/mol
349.4 K | 122.6 ± 5.2 J/K/mol
350 K | 122.2 ± 5.2 J/K/mol
350.3 K | 122.2 ± 5.2 J/K/mol
350.4 K | 122.6 ± 5.2 J/K/mol
351.3 K | 122.3 ± 5.2 J/K/mol
351.4 K | 122.6 ± 5.2 J/K/mol
352.3 K | 122.4 ± 5.2 J/K/mol
352.4 K | 122.5 ± 5.2 J/K/mol
353.3 K | 122.5 ± 5.2 J/K/mol
353.4 K | 122.5 ± 5.2 J/K/mol
354.3 K | 122.7 ± 5.2 J/K/mol
354.4 K | 122.6 ± 5.2 J/K/mol
355 K | 122.8 ± 5.2 J/K/mol
355.3 K | 122.8 ± 5.2 J/K/mol
355.4 K | 122.7 ± 5.2 J/K/mol
356.3 K | 122.9 ± 5.2 J/K/mol
356.4 K | 123 ± 5.2 J/K/mol
357.3 K | 123.1 ± 5.2 J/K/mol
357.4 K | 123.2 ± 5.2 J/K/mol
358.3 K | 123.3 ± 5.2 J/K/mol
358.4 K | 123.4 ± 5.2 J/K/mol
359.3 K | 123.4 ± 5.2 J/K/mol
359.4 K | 123.5 ± 5.2 J/K/mol
360 K | 123.4 ± 5.2 J/K/mol
360.3 K | 123.6 ± 5.2 J/K/mol
360.4 K | 123.6 ± 5.2 J/K/mol
361.4 K | 123.7 ± 5.2 J/K/mol
362.4 K | 123.8 ± 5.3 J/K/mol
363.4 K | 123.9 ± 5.3 J/K/mol
364.4 K | 124.1 ± 5.3 J/K/mol and 124 ± 5.3 J/K/mol
365 K | 124 ± 5.3 J/K/mol
365.4 K | 124.2 ± 5.3 J/K/mol and 124.1 ± 5.3 J/K/mol
366.4 K | 124.3 ± 5.3 J/K/mol and 124.2 ± 5.3 J/K/mol
367.4 K | 124.4 ± 5.3 J/K/mol and 124.3 ± 5.3 J/K/mol
368.4 K | 124.5 ± 5.3 J/K/mol and 124.4 ± 5.3 J/K/mol
369.4 K | 124.6 ± 5.3 J/K/mol
370 K | 124.6 ± 5.3 J/K/mol
370.4 K | 124.7 ± 5.3 J/K/mol
371.4 K | 124.8 ± 5.3 J/K/mol and 124.9 ± 5.3 J/K/mol
372.4 K | 125 ± 5.3 J/K/mol
373.4 K | 125.1 ± 5.3 J/K/mol
374.4 K | 125.2 ± 5.3 J/K/mol
375 K | 125.2 ± 5.3 J/K/mol
375.4 K | 125.3 ± 5.3 J/K/mol
376.4 K | 125.4 ± 5.3 J/K/mol
377.4 K | 125.6 ± 5.3 J/K/mol and 125.5 ± 5.3 J/K/mol
378.4 K | 125.7 ± 5.3 J/K/mol and 125.5 ± 5.3 J/K/mol
379.4 K | 125.9 ± 5.3 J/K/mol and 125.6 ± 5.3 J/K/mol
380 K | 125.8 ± 5.3 J/K/mol
380.4 K | 126 ± 5.3 J/K/mol and 125.7 ± 5.3 J/K/mol
381.4 K | 126.1 ± 5.4 J/K/mol and 125.8 ± 5.3 J/K/mol
382.4 K | 126.2 ± 5.4 J/K/mol and 125.9 ± 5.3 J/K/mol
383.4 K | 126.3 ± 5.4 J/K/mol and 126 ± 5.3 J/K/mol
384.4 K | 126.3 ± 5.4 J/K/mol and 126.2 ± 5.4 J/K/mol
385 K | 126.3 ± 5.4 J/K/mol
385.4 K | 126.4 ± 5.4 J/K/mol and 126.3 ± 5.4 J/K/mol
386.4 K | 126.4 ± 5.4 J/K/mol
387.4 K | 126.5 ± 5.4 J/K/mol
388.4 K | 126.6 ± 5.4 J/K/mol and 126.7 ± 5.4 J/K/mol
389.4 K | 126.8 ± 5.4 J/K/mol
390 K | 126.8 ± 5.4 J/K/mol
390.4 K | 126.9 ± 5.4 J/K/mol and 126.8 ± 5.4 J/K/mol
391.4 K | 127.1 ± 5.4 J/K/mol
391.5 K | 126.9 ± 5.4 J/K/mol
392.4 K | 127.2 ± 5.4 J/K/mol
392.5 K | 127 ± 5.4 J/K/mol
393.4 K | 127.3 ± 5.4 J/K/mol
393.5 K | 127.1 ± 5.4 J/K/mol
394.4 K | 127.4 ± 5.4 J/K/mol
394.5 K | 127.2 ± 5.4 J/K/mol
395 K | 127.4 ± 5.4 J/K/mol
395.4 K | 127.5 ± 5.4 J/K/mol
